Patent US20240317721A1, “PYRAZOLYL DERIVATIVES AS INHIBITORS OF THE KRAS MUTANT PROTEIN” (NOVARTIS AG, priority 2021, published 2024)
pIC50: −log10 of the molar value.

Biological target: KRasG12C (M1-K169, biotinylated on the N-terminus) (Homo sapiens (Human), UniProt P01116, G12C)
Assay: Covalent competition assay: scintillation proximity assay (SPA) quantifying covalent modification of KRASG12C
Assay type: binding
Details: competition with radiolabeled covalent probe (Compound B/Compound A), 2 hours incubation, 10 nM KRasG12C
Summary of the method: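 Scintillation proximity readout after streptavidin bead capture (30 min) of biotinylated KRasG12C(M1-K169):GDP, 10 nM final, which was covalently labelled over 2 h by 25 nM radio-probe plus 475 nM cold probe unless blocked by compound.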

Question: How did the pIC50 turn out when `C=CC(=O)N1CC2(CC(n3nc(N4CCN(c5cnn(C)c5)CC4(C)C)c(-c4c(Cl)c(C)cc5[nH]ncc45)c3C)C2)C1` (single isomer, unassigned) [Example 193b, 1-(6-(4-(5-Chloro-6-methyl-1H-indazol-4-yl)-3-(2,2-dimethyl-4-(1-methyl-1H-pyrazol-4-yl)piperazin-1-yl)-5-methyl-1H-pyrazol-1-yl)-2-azaspiro[3.3]heptan-2-yl)prop-2-en-1-one] was run?
Answer: 7.55

Question: How did the pIC50 turn out when `Cc1cc2[nH]ncc2c(-c2c(N3CCN(C4COC4)CC34CCC4)nn(C3CC4(C3)CN(C(=O)/C=C/CF)C4)c2C)c1Cl` (single isomer, unassigned) [Example 113b, (E)-1-(6-(4-(5-chloro-6-methyl-1H-indazol-4-yl)-5-methyl-3-(8-(oxetan-3-yl)-5,8-diazaspiro[3.5]nonan-5-yl)-1H-pyrazol-1-yl)-2-azaspiro[3.3]heptan-2-yl)-4-fluorobut-2-en-1-one] was run?
Answer: 6.98

Question: `C=CC(=O)N1CC2(CC(n3nc(N4CCN(CC(C)(C)O)C[C@@]4(C)C(F)F)c(-c4c(Cl)c(C)cc5[nH]ncc45)c3C)C2)C1` (single isomer, unassigned) [Example 166b] was tested. Which pIC50 did it give?
Answer: 7.29

Question: With `C=CC(=O)N1CC2(CC(n3nc(N4CCN(CCN5CCOCC5=O)C[C@]4(C)CC)c(-c4c(Cl)c(C)cc5[nH]ncc45)c3C)C2)C1` (single isomer, unassigned) [Example 177b] as the molecule, how does the pIC50 read?
Answer: 5.77

Question: `C=CC(=O)N1CC2(CC(n3nc(N4CCN(CC(F)(F)F)CC4(C)C)c(-c4c(Cl)c(C)cc5[nH]ncc45)c3C)C2)C1` (single isomer, unassigned) [Example 68b, 1-(6-(4-(5-chloro-6-methyl-1H-indazol-4-yl)-3-(2,2-dimethyl-4-(2,2,2-trifluoroethyl)piperazin-1-yl)-5-methyl-1H-pyrazol-1-yl)-2-azaspiro[3.3]heptan-2-yl)prop-2-en-1-one] was tested. Which pIC50 did it give?
Answer: 6.62

Question: How did the pIC50 turn out when `C=CC(=O)N1CC2(CC(n3nc(N4CCn5ccnc5C4)c(-c4c(Cl)c(C)cc5[nH]ncc45)c3C)C2)C1` (single isomer, unassigned) [Example 19b, 1-(6-(4-(5-chloro-6-methyl-1H-indazol-4-yl)-3-(5,6-dihydroimidazo[1,2-a]pyrazin-7(8H)-yl)-5-methyl-1H-pyrazol-1-yl)-2-azaspiro[3.3]heptan-2-yl)prop-2-en-1-one] was run?
Answer: 4.46

Question: With `C=CC(=O)N1CC2(CC(n3nc(N4CC[C@@H](CN5CCOCC5)CC4(C)C)c(-c4c(C)c(Cl)cc5[nH]ncc45)c3C)C2)C1` (single isomer, unassigned) [Example 233a] as the molecule, how does the pIC50 read?
Answer: 5.40

Question: How did the pIC50 turn out when `C=CC(=O)N1CC2(CC(n3nc(N4CCn5nccc5C4(C)C)c(-c4c(Cl)c(C)cc5[nH]ncc45)c3C)C2)C1` (single isomer, unassigned) [Example 101b, 1-(6-(4-(5-chloro-6-methyl-1H-indazol-4-yl)-3-(4,4-dimethyl-6,7-dihydropyrazolo[1,5-a]pyrazin-5(4H)-yl)-5-methyl-1H-pyrazol-1-yl)-2-azaspiro[3.3]heptan-2-yl)prop-2-en-1-one] was run?
Answer: 6.99

Question: With `C=CC(=O)N1CC2(CC(n3nc(N4CC[C@@H](CN5CCOCC5)CC4(C)C)c(-c4c(Cl)c(Cl)cc5[nH]ncc45)c3C)C2)C1` (single isomer, unassigned) [Example 213a] as the molecule, how does the pIC50 read?
Answer: 5.46

Question: `C=CC(=O)N1CC2(CC(n3nc(N4CCC(CN5CCS(=O)(=O)CC5)CC4(C)C)c(-c4c(Cl)c(Cl)cc5[nH]ncc45)c3C)C2)C1` (single isomer, unassigned) [Example 236a, 1-(6-(4-(5,6-dichloro-1H-indazol-4-yl)-3-(4-((1,1-dioxidothiomorpholino)methyl)-2,2-dimethylpiperidin-1-yl)-5-methyl-1H-pyrazol-1-yl)-2-azaspiro[3.3]heptan-2-yl)prop-2-en-1-one] was tested. Which pIC50 did it give?
Answer: 6.77

Question: `C=CC(=O)N1CC2(CC(n3nc(N4CCC5C(=O)N(C)CC5C4)c(-c4c(Cl)c(C)cc5[nH]ncc45)c3C)C2)C1` (stereo not drawn) [Example 16, (3aS*,7aS*)-5-(1-(2-acryloyl-2-azaspiro[3.3]heptan-6-yl)-4-(5-chloro-6-methyl-1H-indazol-4-yl)-5-methyl-1H-pyrazol-3-yl)-2-methyloctahydro-1H-pyrrolo[3,4-c]pyridin-1-one] was tested. Which pIC50 did it give?
Answer: 6.00

Question: With `C=CC(=O)N1CC2(CC(n3nc(N4CCC(N(C)[C@@H]5CCOC5)CC4(C)C)c(-c4c(Cl)c(C)cc5[nH]ncc45)c3C)C2)C1` (single isomer, unassigned) [Example 84b] as the molecule, how does the pIC50 read?
Answer: 7.85

Question: `C=CC(=O)N1CC2(CC(n3nc(N4CCC(=O)CC45CCC5)c(-c4c(Cl)c(C)cc5[nH]ncc45)c3C)C2)C1` [Example 46, 5-(1-(2-acryloyl-2-azaspiro[3.3]heptan-6-yl)-4-(5-chloro-6-methyl-1H-indazol-4-yl)-5-methyl-1H-pyrazol-3-yl)-5-azaspiro[3.5]nonan-8-one] was tested. Which pIC50 did it give?
Answer: 6.86

Question: `C=CC(=O)N1CC2(CC(n3nc(N4[C@@H](C)CN(C(C)=O)C[C@@H]4C)c(-c4c(Cl)c(C)cc5[nH]ncc45)c3C)C2)C1` (single isomer, unassigned) [Example 56a] was tested. Which pIC50 did it give?
Answer: < 4.30

Question: How did the pIC50 turn out when `C=CC(=O)N1CC2(CC(n3nc(N4CC[C@@H](CN5CCN6C(=O)N(C)CC6C5)CC4(C)C)c(-c4c(Cl)c(Cl)cc5[nH]ncc45)c3C)C2)C1` (single isomer, unassigned) [Example 263a] was run?
Answer: < 5.30

Question: `C=CC(=O)N1CC2(CC(n3nc(N4CC[C@@H](CN5CCN(C6COC6)CC5)CC4(C)C)c(-c4c(Cl)c(C)cc5[nH]ncc45)c3C)C2)C1` (single isomer, unassigned) [Example 246a] was tested. Which pIC50 did it give?
Answer: < 5.30

Question: `C=CC(=O)N1CC2(CC(n3nc(N4CCN(CCOC)C[C@]4(C)C(F)F)c(-c4c(Cl)c(C)cc5[nH]ncc45)c3C)C2)C1` (single isomer, unassigned) [Example 178a] was tested. Which pIC50 did it give?
Answer: 5.41

Question: With `C=CC(=O)N1CC2(CC(n3nc(N4CCC(N5C6CCC5COC6)CC4(C)C)c(-c4c(Cl)c(C)cc5[nH]ncc45)c3C)C2)C1` [Example 74a, 1-(6-(3-(4-((1R,5S)-3-oxa-8-azabicyclo[3.2.1]octan-8-yl)-2,2-dimethylpiperidin-1-yl)-4-(5-chloro-6-methyl-1H-indazol-4-yl)-5-methyl-1H-pyrazol-1-yl)-2-azaspiro[3.3]heptan-2-yl)prop-2-en-1-one] as the molecule, how does the pIC50 read?
Answer: < 5.30

Question: How did the pIC50 turn out when `C=CC(=O)N1CC2(CC(n3nc(N4CCN(C(C)=O)CC4)c(-c4c(Cl)ccc5[nH]ncc45)c3C)C2)C1C` (single isomer, unassigned) [Example 195b, 1-(6-(3-(4-Acetylpiperazin-1-yl)-4-(5-chloro-1H-indazol-4-yl)-5-methyl-1H-pyrazol-1-yl)-1-methyl-2-azaspiro[3.3]heptan-2-yl)prop-2-en-1-one] was run?
Answer: < 4.30

Question: How did the pIC50 turn out when `C=CC(=O)N1CC2(CC(n3nc(N4CCC(C)(O)CC4(C)C)c(-c4c(Cl)c(C)cc5[nH]ncc45)c3C)C2)C1` (single isomer, unassigned) [Example 27b, 1-(6-(4-(5-chloro-6-methyl-1H-indazol-4-yl)-3-(4-hydroxy-2,2,4-trimethylpiperidin-1-yl)-5-methyl-1H-pyrazol-1-yl)-2-azaspiro[3.3]heptan-2-yl)prop-2-en-1-one] was run?
Answer: 7.62

Question: `C=CC(=O)N1CC2(CC(n3nc(N4CC[C@@H](CN5CCOCC56COC6)CC4(C)C)c(-c4c(C)c(Cl)cc5[nH]ncc45)c3C)C2)C1` (single isomer, unassigned) [Example 302b] was tested. Which pIC50 did it give?
Answer: 8.00

Question: How did the pIC50 turn out when `C=CC(=O)N1CC2(CC(n3nc(N4CC[C@@H](CN5CCCC56CN(C(C)=O)C6)CC4(C)C)c(-c4c(Cl)c(Cl)cc5[nH]ncc45)c3C)C2)C1` (single isomer, unassigned) [Example 276b] was run?
Answer: > 8.30
